Results taken from patent US20100130598A1, “METHODS FOR INDUCING PROGRAMMED CELL DEATH” (Novogen Research Pty Ltd., priority 2008, published 2010).

Columns and labels:
HPAC cells = experiment: Apoptosis/necrosis by FACS (Annexin-V-FITC/PI), HPAC; format: cell-based, human
Method: (§1) Cells. Human pancreatic cell lines HPAC, MIAPaCa-2 and PANC-1 were obtained from the ATCC. (Manassas, Va.). The cells were maintained in DMEM media with Gln and high glucose (Mediatech, Manassas, Va.) with 10% fetal bovine serum (FBS, HyClone, Logan, Utah) and pencillin/streptomycin.
(§2) FACS Analysis. Apoptosis was measured by FACS analysis using Annexin-V-FITC and propidium iodide (PI) (Biovision, Mountain View, Calif.) as probes (Ahn et al., 2003). Mitochondrial membrane potential was measured by FACS analysis using JC-1 (Biovision) as a probe (Ahn et al., 2003). Cell cycle was analyzed on ethanol-fixed, RNaseA-treated cells staining with PI. In each spectrum, 10,000 gated events were recorded and analyzed with a FACSCalibur (BD Biosciences. San Jose, Calif.). All experiments were done in triplicate, error bars represent one standard deviation. Caspase inhibitor I (zVAD-fmk) was obtained from Calbiochem.

[1] = tested on: Caspase 2, 3 and 9 in PANC-1 cells; experiment: In situ caspase activity by flow cytometry, PANC-1; format: cell-based, human; settings: PANC-1, 10 μM, after 48 hrs
Method: as §1
Caspase Activity After 48 h treatment with 10 μM Compound 10, HPAC, MIAPaCa-2 and PANC-1 cells were harvested by trypsinization and resuspended in DMEM media with 10% FBS. The cells were incubated with caspase substrates for 1 h at 37° C., 5% CO2, then probed with Annexin-V-Cy5 and sytox blue. Caspase +ve cells were gated as shown in the histograms and these cells are indicated on the Annexin-V-Cy5/sytox blue spectra as blue cells. In situ caspase activity was assayed using fluorescent substrates. For Caspase 2, FITC-VDVAD-fmk (Biovision K182-100), for Caspase 3, FITC-DEVD-fmk (K183-100) and for Caspase 9, FITC-LEHD-fmk (K199-100) was used. These substrates bind irreversibly to their respective activated caspases, and caspase activation was quantitated by flow cytometry. […] Caspase activation, apoptosis and necrosis were measured simultaneously using a violet, blue and red laser in a BD LSRII flow cytometer.

PANC-1 cells = experiment: Cell cycle analysis by FACS (PI), PANC-1; format: cell-based, human; settings: PANC-1, 10 μM
Method: as §1, §2

[2] = tested on: phosphorylated Akt (p-Akt); experiment: Western blot of EOC whole cell lysates for phospho-Akt; format: cell-based, human; settings: EOC cells, 10 g/ml (as printed, FIG. 2 legend), as early as 15 mins post-treatment
Source text: (§3) Protein preparation and cellular fractionation. After drug treatment, protein was extracted and measured as previously described (Alvero et al, 2006). For separation of the cytoplasmic and mitochondrial fractions, cell pellets were processed using the ApoAlert™ Cell Fractionation Kit (BD Biosciences, San Jose, Calif.) according to the manufacturer's instructions. For separation of the cytoplasmic and nuclear fractions, pellets were processed using NE-PER Nuclear and Cytoplasmic Extraction (Pierce Biotechnology, Inc., Rockford, Ill.).
SDS-PAGE and Western blots. Cell lysates (20 μg protein) were denatured in sample buffer (2.5% SDS, 10% glycerol, 5% β-mercapto-ethanol, 0.15 M Tris (pH=6.8) and 0.01% bromophenol blue) and subjected to 12% SDS-PAGE as previously described (Kamsteeg et al, 2003). […]

Bid, Bax, Beclin-1 = experiment: Western blot of cell lysates and mitochondrial fractions for Bid, Bax, Beclin-1; format: cell-based, human; settings: EOC cells
Source text: as §3
(§4) SDS-PAGE and Western blots. Cell lysates (20 μg protein) were denatured in sample buffer (2.5% SDS, 10% glycerol, 5% β-mercapto-ethanol, 0.15 M Tris (pH=6.8) and 0.01% bromophenol blue) and subjected to 12% SDS-PAGE as previously described (Kamsteeg et al, 2003). The following antibodies and concentrations were used: mouse anti-XIAP (BD, 1:1,000), rabbit anti-MAP LC3 (1:200), rabbit anti-actin (Sigma, 1:10,000), rabbit anti-phosphorylated Akt (Cell Signaling, 1:1,000), rabbit anti-Akt (Cell Signaling, 1:1000), rabbit anti-phosphorylated mTOR (Cell Signaling, 1:1000), rabbit anti-mTOR (Cell Signaling, 1:1000), rabbit anti-cytochrome c (Clontech Laboratories, Inc, Mountainview, Calif., 1:100), rabbit anti-Omi (R&D Systems, Minneapolis, Minn., 1:5000), rabbit anti-Bid (Cell Signaling, 1:1000), mouse anti-Bax (BD Pharmingen, 1:250), rabbit anti-VDAC (Sigma Aldrich, 1:2000), mouse anti-Bcl2 (BD Pharmingen, 1:500), rabbit anti-AIF (Sigma Aldrich, 1:1000), rabbit anti-EndoG (Sigma Aldrich, 1:1000), mouse anti-topoisomerase I (BD Pharmingen, 1:10,000). Proteins were visualized using enhanced chemiluminescence (Pierce, Rockford Ill.).

Beclin-1 / Bcl2 = experiment: Beclin-1 immunoprecipitation from mitochondrial fraction, probed for Bcl2 and Bak; format: cell-based, human; settings: 10 μg/ml, 1 h
Method: as §4
Immunoprecipitation. […]

EndoG = experiment: Immunohistochemistry of xenograft tumors for EndoG; format: in vivo, NCR nude mice; settings: paraffin-embedded tumor sections; control tumors only cytoplasmic staining
Method: Mouse xenograft studies. The in vivo study as approved by the Yale University Institutional Animal Care & Use Committee. Cells (1×10^6 cells) were resuspended in 200 μ1 total volume of 50% RPMI and 50% BD Matrigel Matrix (BD Biosciences, Bedford, Mass.) and injected subcutaneously into the right flank of NCR nude mice. Intra-peritoneal therapy commenced eight days post-inoculation as follows: Paclitaxel 10 mg/kg q×3d, Carboplatin 40 mg/kg q×7d, and Compound 1 in 20% HPBCD, 100 mg/kg every day. Control groups received 20% HPBCD in PBS. Mice were treated and observed for 3 weeks. Tumor size was determined by caliper measurements and anti-tumor activity was analyzed with respect to maximal tumor inhibition (treated/control, T/C) as described previously (Kamsteeg et al, 2003).
Immunohistochemistry. Immunohistochemistry was performed as described previously (Kelly et al, 2006) using rabbit anti-EndoG (Lifespan Biosciences, Seattle, Wash.) at 1:100 dilution.

[3] = dose-escalating, 48 hr exposure

Row | SMILES | effect of zVAD-fmk pre-treatment on induced apoptosis (HPAC cells; 10 μM zVAD-fmk 1 hr before 10 μM Compound 10, 42-46 h) | effect of zVAD-fmk pre-treatment on induced necrosis (HPAC cells; 10 μM zVAD-fmk 1 hr pre-treatment, 10 μM Compound 10 or Fas-activating antibody) | apoptosis (HPAC cells; [3]) | necrosis (HPAC cells; [3]) | caspase 2, 3 and 9 activation [1] | time of G2/M arrest post treatment (PANC-1 cells) | time remained in G2/M arrest (PANC-1 cells) | p-Akt level [2] | mitochondrial translocation of Bax (Bid, Bax, Beclin-1; 10 μg/ml, 2 h post-treatment) | Beclin-1 translocation to the mitochondria (Bid, Bax, Beclin-1; 10 μg/ml, as early as 1 h post-treatment) | activation of Bid (Bid, Bax, Beclin-1; 10 μg/ml, total cell lysates) | Beclin-1 message or protein expression (RT-PCR, whole cell lysates) (Bid, Bax, Beclin-1; data not shown) | Bak in complex with Beclin-1 (Beclin-1 / Bcl2) | Bcl2 in complex with Beclin-1 (Beclin-1 / Bcl2; vs no treatment control) | localization of EndoG in tumors (EndoG)
1 | COc1ccc(C2c3ccc(O)cc3OCC2c2ccc(O)cc2)cc1 (stereo not drawn) [Compound 10, 3-(4-hydroxyphenyl)-4-(4-methoxyphenyl)chroman-7-ol] | did not inhibit | inhibited | induced apoptosis in a dose-dependent fashion | Very little necrosis | activated | 4 to 24 h | at least 48 hrs |  |  |  |  |  |  |  | 
2 | COc1ccc(C2c3ccc(O)c(C)c3OCC2c2ccc(O)cc2)cc1 (stereo not drawn) [Compound 1, 3-(4-hydroxyphenyl)-4-(4-methoxyphenyl)-8-methylchroman-7-ol] |  |  |  |  |  |  |  | strong down-regulation | induces mitochondrial translocation | translocates to the mitochondria | does not induce | no changes | not observed | Higher levels | nuclear localization
